The values that follow are results of earlier work, collected in patent publication US20220280561A1, “COPPER-ATSM FOR TREATING NEURODEGENERATIVE DISORDERS ASSOCITED WITH MITOCHONDRIAL DYSFUNCTION” (RESEARCH INSTITUTE AT NATIONWIDE CHILDREN'S HOSPITAL, priority 2019, published 2022).

For the series, the system named is ALS. Particulars: ALS patients; cited from earlier work.

For the compound `CC1=NN(c2ccccc2)C(=O)C1` [Edaravone], the “patient quality of life” value is reported as “significant impact on patient quality of life”.

Turning to `Nc1nc2ccc(OC(F)(F)F)cc2s1` [Riluzole], the lifespan entry is listed as “modestly extending lifespan”.
